Data set [1] addresses T1, Growth hormone secretagogue receptor type 1 (Homo sapiens, UniProt Q92847). The experiment in a line: Displacement of [125I]-ghrelin from human GHS-R1a expressed in tetracycline inducible HEK293 cells after 8 hrs by liquid scintillation counting. The class given is cell-based. The conditions noted are these: for pKi: hek293.
The target in data set [2] is T2, Muscarinic acetylcholine receptor M2 (Homo sapiens, UniProt P08172).
T2 sequence (P08172 whole entry): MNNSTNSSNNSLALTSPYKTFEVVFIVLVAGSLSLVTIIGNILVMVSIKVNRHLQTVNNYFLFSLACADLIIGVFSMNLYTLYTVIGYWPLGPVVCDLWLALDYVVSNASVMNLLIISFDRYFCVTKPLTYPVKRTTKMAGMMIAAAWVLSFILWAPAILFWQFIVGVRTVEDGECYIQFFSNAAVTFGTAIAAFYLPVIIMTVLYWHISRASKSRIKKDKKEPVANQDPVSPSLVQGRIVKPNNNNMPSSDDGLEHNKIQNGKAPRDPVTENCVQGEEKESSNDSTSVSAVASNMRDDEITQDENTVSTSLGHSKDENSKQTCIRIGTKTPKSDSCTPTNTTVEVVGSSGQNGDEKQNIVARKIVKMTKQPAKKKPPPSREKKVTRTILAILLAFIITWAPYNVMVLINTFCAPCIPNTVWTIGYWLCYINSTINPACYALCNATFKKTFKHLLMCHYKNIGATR
The experiment in a line: Displacement of N-methyl [3H]-scopolamine from recombinant human muscarinic acetylcholine receptor M2 expressed in CHO cells after 2 hrs by liquid scintillation counting. The class given is cell-based. The conditions noted are these: for pKi: cho.

In data set [3] the test system is Rattus norvegicus. As to the kind of experiment: Ex vivo receptor occupancy of GHS-R1a in Sprague-Dawley rat hypothalamus at 10 mg/kg, po measured at 1 hr by liquid scintillation counting in presence of [His [125I]]-Ghrelin. The class given is functional.
Data set [4] addresses T2, Muscarinic acetylcholine receptor M2. As to the kind of experiment: Binding affinity to muscarinic acetylcholine receptor M2 (unknown origin).
In data set [5] the target is T1, Growth hormone secretagogue receptor type 1. The experiment in a line: Inverse agonist activity at human GHS-R1a expressed in tetracycline inducible HEK293 cells incubated for 24 hrs prior to europium-labeled GTP addition measured after 90 mins by DELFIA assay. The arrangement: Activity: concentration or dose not given beside the values. The class given is cell-based.

Data set [6] can be described thus: Apparent intrinsic clearance in human liver microsomes. The class given is ADME, Microsome. The conditions noted are these: read-out: CLH(app).
In data set [7] the test system is human MDR1 (P-gp). The experiment in a line: Efflux ratio of permeability in MDCK cells expressing human MDR-1 gene. The data set is classed as ADME, cell-based, Canis lupus familiaris. The settings on record: dog.

Some results are limits rather than exact numbers.

T1 sequence (Q92847 whole entry): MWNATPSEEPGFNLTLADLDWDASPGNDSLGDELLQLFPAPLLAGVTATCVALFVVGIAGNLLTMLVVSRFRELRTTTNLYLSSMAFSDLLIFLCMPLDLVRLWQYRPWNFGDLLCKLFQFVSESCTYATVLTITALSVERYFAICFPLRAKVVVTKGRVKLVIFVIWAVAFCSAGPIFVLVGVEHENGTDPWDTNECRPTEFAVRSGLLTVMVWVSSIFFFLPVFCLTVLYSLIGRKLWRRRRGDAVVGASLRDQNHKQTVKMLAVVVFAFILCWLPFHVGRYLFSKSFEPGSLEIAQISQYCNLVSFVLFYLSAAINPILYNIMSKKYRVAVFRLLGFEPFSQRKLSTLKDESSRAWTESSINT

Usually pKi stands for the negative decadic logarithm of the Ki, by convention in mol/L. By Ki is commonly meant a measure of affinity in units of concentration, obtained from inhibition or displacement. As for `COc1ccc(CC(=O)N2CCC3(CC2)CN([C@H](c2ccc(-c4ncccn4)cc2)C(C)C)C3)nc1`, the negative-log Ki (pKi) in data set [1] is less than 4.68. For the same molecule, the inhibition constant Ki in data set [2] was 0.912 µM.
In the case of `COc1ccc(CC(=O)N2CCC3(CC2)CN([C@@H]2CCc4cc(-c5ncccn5)ccc42)C3)cc1`, the Occ in data set [3] was found to be 85%.
In data set [4], `Cc1cn2cc(CC(=O)N3CCC4(CC3)CN(Cc3ccc(-n5nccn5)cc3Cl)C4)nc2s1` gave a Ki of 0.269 µM.
In general, pKb refers to the negative decadic logarithm of the Kb, by convention in mol/L. In data set [5], `CCc1cnc(-c2ccc3c(c2)CC[C@H]3N2CC3(CCN(C(=O)Cc4ccc(OC)cn4)CC3)C2)nc1` yielded an Activity of 29% and a pKb of 7.37. Moreover, the pKi in data set [2] was less than 4.17. For the same molecule, the Occ in data set [3] came out at 64%.
For the molecule `COc1ccc(CC(=O)N2CCC3(CC2)CN([C@H](C)c2ccc(-c4ncccn4)cc2)C3)nc1`, the Ki is 25.1 µM in data set [1] and 20 µM in data set [2].
In data set [5], `CCc1ccc(CC(=O)N2CCC3(CC2)CN([C@@H]2CCc4cc(-n5nccn5)ccc42)C3)nc1` displayed an Activity of 23% and a pKb of 7.38. Further, in data set [2], the pKi is less than 4.59. Also, in data set [3], the Occ was 74%.
Broadly, the efflux ratio is a quotient of directional permeabilities that is used to spot active efflux. Turning to `Cc1ccc(CC(=O)N2CCC3(CC2)CN([C@@H]2CCc4cc(-c5ncccn5)ccc42)C3)nc1`, in data set [5], the Activity was found to be 21% and the pKb was found to be 6.98. The pKi in data set [2] was less than 4.56. Moreover, the microsomal CLint in data set [6] was 22 µL/min/mg. Further, the Occ in data set [3] is listed as 0.2%. Further, in data set [7], the efflux ratio was 2.
In data set [5], `CCc1ccc(CC(=O)N2CCC3(CC2)CN([C@@H]2CCc4cc(-c5ncccn5)ccc42)C3)nc1` registered an Activity of 22%. The molecule also showed a pKb in data set [5] of 7.13. The Ki in data set [1] is 0.0155 µM; in data set [2], 28.2 µM. The Occ in data set [3] was found to be 10%.
On to `Cc1ccc(CC(=O)N2CCC3(CC2)CN([C@@H]2CCc4cc(-n5nccn5)ccc42)C3)nc1`, for which, in data set [5], the Activity came to 40% and the pKb stood at 7.23. For the same molecule, the Ki in data set [2] is 21.9 µM. In data set [3], the Occ is listed as 23%.
`COc1ccc(CC(=O)N2CCC3(CC2)CN(C(c2ccc(-c4ncccn4)cc2)C(C)C)C3)nc1` (configuration not stated) returned a pKi in data set [1] of less than 4.52. In data set [2], the inhibition constant (Ki) was 0.151 µM.
On the same counts, the results for `COc1ccc(CC(=O)N2CCC3(CC2)CN([C@@H](c2ccc(-c4ncccn4)cc2)C(C)C)C3)nc1` are less than 4.53 and 0.0479 µM.
Regarding `COc1ccc(CC(=O)N2CCC3(CC2)CN([C@@H]2CCc4cc(-n5nccn5)ccc42)C3)cc1`, in data set [5], the Activity turned out to be 21% and the pKb was determined as 8.27. This molecule had a Ki in data set [1] of 0.00741 µM. The pKi in data set [2] was less than 4.26. Further, the Occ in data set [3] was 74%.
On the same counts, the results for `COc1ccc(CC(=O)N2CCC3(CC2)CN([C@@H]2CCc4cc(-c5nccs5)ccc42)C3)nc1` are 39%, 7.4, 0.00398 µM, less than 4.25 and 35%.
As a reminder, the IC50 is the concentration that gives 50% inhibition. In turn, `COc1ccc(CC(=O)N2CCC3(CC2)CN(C2CCc4cc(-c5ncccn5)ccc42)C3)nc1` (racemic) gave an IC50 in data set [1] of 0.0372 µM. Further, the inhibition constant Ki in data set [2] is 1.62 µM.
The matching figures for `COc1ccc(CC(=O)N2CCC3(CC2)CN(C2CCc4cc(-c5nccs5)ccc42)C3)nc1` (configuration not stated): 0.0302 µM and 0.871 µM.
For the molecule `COCC(c1ccc(-c2ncccn2)cc1)N1CC2(CCN(C(=O)Cc3ccc(OC)cn3)CC2)C1` (configuration not stated), the inhibition constant (Ki) is 3.63 µM in data set [1] and 7.08 µM in data set [2].
Turning to `COc1ccc(CC(=O)N2CCC3(CC2)CN(C(C)c2ccc(-c4ncccn4)cc2)C3)nc1` (configuration not stated), the Ki in data set [1] was 1.7 µM; in data set [2], 2.4 µM.
Regarding `COc1ccc(CC(=O)N2CCC3(CC2)CN([C@@H]2CCc4cc(-n5nccn5)ccc42)C3)nc1`, in data set [5], the Activity is 42% and the pKb worked out at 7.57. The pKi in data set [2] was less than 4.42. For the same molecule, the Occ in data set [3] was 50%.
Turning to `COc1ccc(CC(=O)N2CCC3(CC2)CN([C@@H](C)c2ccc(-c4ncccn4)cc2)C3)nc1`, the values for the Ki in data set [1] and in data set [2] were 1.12 µM and 2.24 µM, respectively.
For the molecule `COc1ccc(CC(=O)N2CCC3(CC2)CN([C@H]2CCc4cc(-c5nccs5)ccc42)C3)nc1`, the Ki is 1.38 µM in data set [1] and 1.55 µM in data set [2].
As to `COc1ccc(CC(=O)N2CCC3(CC2)CN([C@H]2CCc4cc(-c5ncccn5)ccc42)C3)nc1`, the IC50 in data set [1] is 1.1 µM. In addition, the Ki in data set [2] was 0.407 µM.
The matching figures for `COc1ccc(CC(=O)N2CCC3(CC2)CN(Cc2ccc(-c4ncccn4)cc2Cl)C3)cc1`: 0.0158 µM and 1.95 µM.
In data set [5], `COc1ccc(CC(=O)N2CCC3(CC2)CN([C@@H]2CCc4cc(-c5ncc(C)cn5)ccc42)C3)nc1` had an Activity of 40% and a pKb of 7.07. Besides, in data set [2], the negative-log Ki (pKi) is less than 4.17. For the same molecule, the Occ in data set [3] is listed as 5%.
In data set [5], `COc1ccc(CC(=O)N2CCC3(CC2)CN([C@@H]2CCc4cc(-c5ncccn5)ccc42)C3)nc1` came in with an Activity of 42% and a pKb of 7.6. This molecule also gave a Ki in data set [1] of 0.0295 µM. Moreover, the Ki in data set [2] is 14.5 µM. The Occ in data set [3] turned out to be 45%.

Source of the values: ChEMBL document CHEMBL2424611, “Identification of potent, selective, CNS-targeted inverse agonists of the ghrelin receptor” (Bioorg Med Chem Lett, 2013).
